Reference: patent publication US10016383B2, “Inhibitors of metallo-β-lactamase-enzymes” (McMaster University, priority 2013, dated 2018)
“Also recorded” adds a separate entry of the source.

Assays:
VIM-2 [1] = biological target: T1, VIM-2 (Escherichia coli, UniProt Q5U7L7); test: Incubation of AM-A with metalloenzymes in Zn2+-depleted buffer; type: biochemical; details: extended incubation, AM-A 0.5 mM
T1 construct: All β-lactamase overexpression constructs were generated without the leader peptide in a pET-28b plasmid containing a N-terminal His Tag; His tag (N); made in house; host or cells: E. coli BL21(DE3)
Description: (§1) Enzyme (500 nM) was incubated with AM-A (500 μM) for 10 minutes. 20 μL of the above was diluted with 180 μL nitrocefin or FAPGG substrate for the following final concentrations: Enzyme (50 nM), FAPGG (50 μM)/nitrocefin (20 μM), AM-A (50 μM). Buffer (50 mM HEPES pH 7.5, 300 mM NaCl) was stirred overnight with 2 g/100 mL Chelex-100 (Biorad; Richmond, Calif.). Assays were read in 96-well microplate format at 490 nm using a Spectramax reader (Molecular Devices) at 37° C.

VIM-2 [2] = biological target: T1, VIM-2; test: Inactivation kinetics; type: biochemical
Description: NDM-1 (50 nM) was added to 20 μM nitrocefin containing AM-A in serial ½ dilutions from 8 μM. The assay was performed in 50 mM HEPES pH 7.5, 200 μL final volume. The assay was read in 96-well microplate format at 490 nm using a Spectramax reader (Molecular Devices) for 10 minutes at 37° C. VIM-2 (10 nM) was added to 20 μM nitrocefin containing AM-A in serial ½ dilutions from 16 μM. The assay was performed in 50 mM HEPES pH 7.5, 200 μL final volume. The assay was read in 96-well microplate format at 490 nm using a Spectramax reader (Molecular Devices) for 10 minutes at 37° C. as reported previously. For all assays experiments the offset between reaction initiation and the first read was ˜6s.
Rate constants characterizing the inactivation of enzyme were calculated based on the dependence of the pseudo-first order rate constant, ki, upon AM-A concentration according to the following model:
[formula] where E•Zn, A, E•Zn•A, and Zn•A are the active metalloenzyme, AM-A, the ternary metalloenzyme-AM-A complex, and AM-A-metal complex, respectively. Ki represents the dissociation constant of the ternary complex and k+2 is the rate constant for dissociation of ternary complex into inactivated enzyme (Einact) and AM-A-Zn complex. […]
[formula] […] The individual values of Ki and k+2 were determined by fitting the value of ki to equation 2 as described previously^25: […]

AIM-expressing isolates = test: Clinical isolate screening with meropenem; type: cell-based, Enterobacteriaceae, Acinetobacter spp. and Pseudomonas spp.; details: meropenem 2 μg/ml, AM-A 8 μg/ml
Description: (§2) Various concentrations of AM-A were chosen in combination with 2 mg/L of meropenem which is the EUCAST breakpoint for resistance^28. Synergistic properties of the two compounds were examined in a micro-titre tray using BHI as the growth medium (Oxford Science Park, England) and an inoculum of 0.5 MacFarland. All plates contained the control strains Escherichia coli ATCC 25922 and Pseudomonas aeruginosa ATCC 27853. Overall, 226 non-clonal clinical isolates (Enterobacteriaceae, P. aeruginosa and Acinetobacter spp.) were challenged containing one of the following MBLs: SPM-1 (n=17), AIM-1 (n=8), NDM-1 (n=67), VIM-type (n=114) or IMP-type (n=20). […] Plates were incubated at 37° C. and read after 18 hrs.

IMP-expressing isolates = test: Clinical isolate screening with meropenem; type: cell-based, Enterobacteriaceae, Acinetobacter spp. and Pseudomonas spp.; details: meropenem 2 μg/ml, AM-A 8 μg/ml
Description: as §2

NDM positives isolates = test: Clinical isolate screening with meropenem; type: cell-based, Enterobacteriaceae, Acinetobacter spp. and Pseudomonas spp.; details: AM-A 8 μg/ml, meropenem 2 μg/ml
Description: as §2

[3] = tested on: SPM-1-expressing isolates; test: Clinical isolate screening with meropenem; type: cell-based, Enterobacteriaceae, Acinetobacter spp. and Pseudomonas spp.; details: meropenem 2 μg/ml, AM-A 8 μg/ml
Description: as §2

VIM positive isolates = test: Clinical isolate screening with meropenem; type: cell-based, Enterobacteriaceae, Acinetobacter spp. and Pseudomonas spp.; details: AM-A 8 μg/ml, meropenem 2 μg/ml
Description: as §2

[4] = in vivo; cited from earlier work
NDM-1 [5] = biological target: T2, NDM-1 (Klebsiella pneumoniae, UniProt C7C422); test: Incubation of AM-A with metalloenzymes in Zn2+-depleted buffer; type: biochemical; design: All β-lactamase overexpression constructs were generated without the leader peptide in a pET-28b plasmid containing a N-terminal His Tag; His tag (N, cleaved yes); SUMO (implied by the use of SUMO protease) (N, cleaved yes); made in house; host or cells: E. coli BL21(DE3); details: extended incubation, AM-A 0.5 mM
T2 sequence (C7C422 29-270 limits assumed): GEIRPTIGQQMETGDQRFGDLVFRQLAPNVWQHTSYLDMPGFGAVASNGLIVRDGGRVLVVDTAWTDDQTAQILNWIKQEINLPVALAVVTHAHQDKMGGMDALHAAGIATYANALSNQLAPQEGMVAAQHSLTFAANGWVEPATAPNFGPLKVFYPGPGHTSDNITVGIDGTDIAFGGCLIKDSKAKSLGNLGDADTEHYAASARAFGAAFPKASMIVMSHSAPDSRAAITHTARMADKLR
Description: as §1

NDM-1 [6] = biological target: T2, NDM-1; test: Zn2+ restoration assay; type: biochemical; design: All β-lactamase overexpression constructs were generated without the leader peptide in a pET-28b plasmid containing a N-terminal His Tag; His tag (N, cleaved yes); SUMO (implied by the use of SUMO protease) (N, cleaved yes); made in house; host or cells: E. coli BL21(DE3); details: post-inactivation by AM-A
Description: NDM-1 (5 nM) supplemented with […] ZnSO4 was incubated with 20 μM AM-A for 15 minutes at 30° C. Nitrocefin (30 μM) and ZnSO4 from 500 nM-40 μM were added to a final volume of 100 μL and absorbance at 490 nm was monitored using a Spectramax reader (Molecular Devices) for 30 minutes at 30° C. Percent residual activity was calculated from no AM-A control. Slightly negative percent residual activity was reported as 0.

## N[C@H](CN[C@H](CN[C@@H](CC(=O)O)C(=O)O)C(=O)O)C(=O)O [AM-A, aspergillomarasmine A]
VIM-2 [1]
  inactivation of VIM-2: complete inactivation
VIM-2 [2]
  Ki: 7 nM
VIM-2 [2]; time-dependent inactivation
  k+2 (inactivation rate constant): 0.0065 s⁻¹
AIM-expressing isolates
  potentiation of meropenem / susceptibility to combination: very little potentiation; also recorded: remained resistant
IMP-expressing isolates
  potentiation of meropenem / susceptibility to combination: very little potentiation; also recorded: remained resistant
NDM positives isolates
  isolates with meropenem sensitivity restored: 88%
  susceptibility to meropenem/AM-A combination: highly susceptible
[3]
  potentiation of meropenem / susceptibility to combination: very little potentiation; also recorded: remained resistant
VIM positive isolates
  isolates with meropenem sensitivity restored: 90%
  susceptibility to meropenem/AM-A combination: highly susceptible
[4]
  effect on mean atrial blood pressure: no effect
NDM-1 [5]
  inactivation of NDM-1: complete inactivation
NDM-1 [6]
  NDM-1 activity after addition of excess ZnSO4: enzymatic activity could be restored; also recorded: restores activity
